Experimental data: US10183908B2, “Compositions for the treatment of kidney and/or liver disease” (VECTUS BIOSYSTEMS LIMITED, priority 2015, dated 2019)

Legend:
SHR [1] = experiment: Blood pressure in SHR by tail cuff plethysmography; assay type: in vivo, rat; conditions: SHR on 2.2% salt diet; 500 pmol/kg/min in drinking solution; 4 weeks; systolic, FIG. 11
From the text: Fourteen week old SHR (on a 2.2% salt diet; Glen Forrest Stockfeeders) were randomly assigned to zero time control (14 week old rats), test compound treatment drinking solution (500 pmol/kg/min in deionised distilled water) or control drinking solution (5% ethanol in deionised distilled water). The rats assigned to zero time control group (14 week old rats) were anaesthetised and had their kidneys and liver harvested while rats assigned to control and test compound treatment were weighed twice weekly and had their drinking solution intake monitored to allow adjustment of the test compound concentration in the drinking solution to maintain a constant dose over the 4-week study period. Blood pressure was measured twice weekly by tail cuff plethysmography (PowerLab, ADInstruments, Castle Hill, NSW, Australia). After 4 weeks rats were anaesthetised (18 week old rats), and their kidneys and liver harvested.

SHR [2] = experiment: Hepatic fibrosis in SHR (Masson's trichrome); assay type: in vivo, rat; conditions: for Fibrosis in the liver compared to 18 week controls: SHR, 500 pmol/kg/min, 4 weeks, FIG. 13, *p<0.05, **p<0.025, ***p<0.01; for Tissue architecture of portal tracts in Masson's tri-chrome stained liver sections: SHR treated rats vs control, FIG. 14
From the text: (§1) Fourteen week old SHR (on a 2.2% salt diet; Glen Forrest Stockfeeders) were randomly assigned to zero time control (14 week old rats), test compound treatment drinking solution (500 pmol/kg/min in deionised distilled water) or control drinking solution (5% ethanol in deionised distilled water). The rats assigned to zero time control group (14 week old rats) were anaesthetised and had their kidneys and liver harvested while rats assigned to control and test compound treatment were weighed twice weekly and had their drinking solution intake monitored to allow adjustment of the test compound concentration in the drinking solution to maintain a constant dose over the 4-week study period. Blood pressure was measured twice weekly by tail cuff plethysmography (PowerLab, ADInstruments, Castle Hill, NSW, Australia). After 4 weeks rats were anaesthetised (18 week old rats), and their kidneys and liver harvested. To quantitate tissue fibrosis and/or fat content, tissue slices ≤3 mm thick were fixed in 10% buffered formalin for 24 hours, processed and embedded in paraffin. Three micron transverse sections were stained using Masson's trichrome stain. A minimum of 20 random fields at magnification ×20 from transverse sections (5 at each of 2 levels) were digitized and the degree of fibrosis and fat content determined as a percent of field area of each digitized image using Image-Pro Plus V.7 (Media Cybernetics, Bethesda, Md., USA) then averaged to determine the level of fibrosis and/or fat content for each rat.

[3] = test system: Rat (NRK-52E) renal proximal tubule cells; experiment: Rescue of renal proximal tubule cells from cisplatin cytotoxicity (WST-8/CCK-8); assay type: cell-based; conditions: test compound 30 μM; cisplatin 5 μg/ml; 24 or 48 hours; FIG. 10
Procedure: Rat (NRK-52E) renal proximal tubule cells grown in DMEM+10% FBS+1% NEAA+2 mM glutamine were placed in 96 well plates at 10,000 cells/well and incubated at 37° C. with 5% CO2 overnight. Test compounds at a concentration of 30 μM were incubated with human or rat renal proximal tubule cells for 2 hours at 37° C. and 5% CO2. Cis-diamminedichloroplatinum[…] (cisplatin) was then added at […] and each cell population was then incubated for 24 or 48 hours at 37° C. with 5% CO2. Test compounds were maintained at their original concentrations. To assay the cytotoxic effects of cisplatin on the rat renal proximal tubule cells a highly water-soluble tetrazolium salt, WST-8, which is reduced by dehydrogenases in cells to produce formazan, a water-soluble, yellow-coloured indicator dye was used following the manufacturer's instructions (specifically the Cell Count Kit-8 (CCK-8) assay from Sigma). Plate absorbance of the WST-8 (CCK-8) reagent was then measured at 450 nm using a Thermo Scientific Multiskan EX plate reader.

SHR [4] = experiment: Hepatic fat content in SHR; assay type: in vivo, rat; conditions: SHR on 2.2% salt diet; 500 pmol/kg/min; 4 weeks; FIG. 15, *p<0.05, **p<0.025, ***p<0.01
From the text: as §1

SHR [5] = experiment: Kidney fibrosis in SHR (Masson's trichrome); assay type: in vivo, rat; conditions: SHR on 2.2% salt diet, 500 pmol/kg/min, 4 weeks; for Fibrosis in the kidney compared to 18 week controls: FIG. 12, *p<0.05
From the text: as §1

[6] = test system: A10 embryonic vascular smooth muscle cells; experiment: xCELLigence cell impedance in A10 vascular smooth muscle cells; assay type: cell-based; conditions: test compounds at 62.5, 125 or 250 μM; FIG. 8; negative response = direct vasodilator
From the text: The xCELLigence SP system (Roche) was used to measure changes in cellular impedance (cell index) following the treatment of A10 embryonic vascular smooth muscle cells (ATCC, CRL-1476) with test compound. In this in vitro cell based experimental system a negative impedance profile correlates with blood pressure reduction in rats—a decrease in impedance is associated with vasodilatation and an increase in impedance is associated with vasoconstriction (Stallaert W, Dorn J F, van der Westhuizen E, Audet M & Bouvier M. Impedance responses reveal β-adrenergic signaling […] and allow classification of ligands with distinct signalling profiles PLoS ONE 2012; 7(1):e29420, doi:10.1371/journal.pone.0029420).
(§2) Briefly, 50 μl of cell culture medium (DMEM low glucose supplemented with 10% fetal bovine serum at 37° C.) was added to each well of an E-Plate 96 (Roche), and the background impedance in each well was measured. 50 μl of A-10 cell suspension (10,000 cells/well) was then added to the appropriate wells of the E-Plate 96. Cell index was monitored for each well of the E-Plate 96 in RTCA SP Station within the cell culture incubator. After overnight incubation for 16-20 hours at 5% CO2 and 95% humidity, 100 μl of test compound solution (test compounds were prepared in DMSO and diluted with cell culture medium to a final DMSO concentration of 0.25%) was added to the appropriate wells of the E-Plate 96 and cell index values were measured immediately following compound treatment every 20 seconds for 3 hours. Cell index value is baseline-corrected by subtracting the cell index of vehicle-treated cells and normalized by dividing by the cell index at the time point immediately before compound addition. Baseline normalized cell index as a function of time is plotted using Roche RTCA software.
Compounds may achieve reductions in blood pressure by interaction with vascular smooth muscle cells causing these cells to relax resulting in vasodilatation and a reduction in blood pressure. These are termed direct vasodilators.

[7] = test system: bovine aortic endothelial cells; experiment: xCELLigence cell impedance in bovine aortic endothelial cells; assay type: cell-based; conditions: test compounds at 62.5, 125 or 250 μM; FIG. 9; negative response = indirect vasodilator
Procedure: as §2
The xCELLigence SP system was also used to measure changes in cellular impedance following the treatment of bovine aortic endothelial cells (European Collection of Cell Cultures) with test compound. The method employed is the same for the A10 embryonic vascular smooth muscle cells described above but with the cell culture medium supplemented with 15% fetal bovine serum instead of 10%.
Compounds may interact with vascular endothelial cells causing the release of substances such as nitric oxide and endothelium-derived hyperpolarising factor, which in turn act on the vascular smooth muscle cells causing vasodilatation and lowering blood pressure. Such compounds are termed indirect vasodilators.

Compound	Blood pressure (SHR [1])	Fibrosis in the liver compared to 18 week controls (SHR [2])	Cisplatin induced cell death in renal proximal tubular cells [3]	Fat in the liver compared to 18 week controls (SHR [4])	Fibrosis in the kidney compared to 18 week controls (SHR [5])	impedance response for A10 vascular smooth muscle cells [6]	Fibrosis in the kidney compared to 14 week controls (SHR [5]; FIG. 12, #p<0.05, reversal of established fibrosis)	Tissue architecture of portal tracts in Masson's tri-chrome stained liver sections (SHR [2])	impedance response for bovine aortic endothelial cells [7]
Cc1nc(C)c(-c2ccc(-c3cccc(O)c3)c(CCC(N)=O)c2)s1 [Compound P40, 3-(4-(2,4-Dimethylthiazol-5-yl)-3′-hydroxy-[1,1′biphenyl]-2-yl)propanamide]	reduced	decreased	decreased	reduced	decreased	–	–	–	–
NC(=O)CCc1cc(-c2cccnc2)ccc1-c1cccc(O)c1 [Compound P5, 3-(3′-Hydroxy-4-(pyridin-3-yl)-[1,1′-biphenyl]-2-yl)propanamide]	reduced	–	decreased	–	decreased	Negative impedance responses	decreased	–	–
NC(=O)CCc1cc(-c2cncnc2)ccc1-c1cccc(O)c1 [Compound P26, 3-(3′-Hydroxy-4-(pyrimidin-5-yl)-[1,1-biphenyl]-2-yl)propanamide]	–	decreased	decreased	reduced	decreased	–	–	normal tissue architecture has been restored	Negative impedance responses
NC(=O)CCc1cc(-c2cn[nH]c2)ccc1-c1cccc(O)c1 [Compound P22, 3-(3′-Hydroxy-4-(1H-pyrazol-4-yl)-[1,1′-biphenyl]-2-yl)propanamide]	reduced	decreased	decreased	reduced	decreased	–	–	–	Negative impedance responses
NC(=O)CCc1cc(-c2ccsc2)ccc1-c1cccc(O)c1 [Compound P8, 3-(3′-Hydroxy-4-(thiophen-3-yl)-[1,1′biphenyl]-2-yl)propanamide]	reduced	decreased	decreased	–	decreased	Negative impedance responses	–	normal tissue architecture has been restored	Negative impedance responses
